Patent US12146879B2, “Capacitive biosensor for identifying a microorganism or determining antibiotic susceptibility” (priority 2016, dated 2024)
≈ marks a conversion by molar mass, not a printed value.

Columns and labels:
Staphylococcus aureus [1] = experiment: Minimum inhibitory concentration by real-time capacitance of capacitive biosensor; assay type: cell-based; details: Staphylococcus aureus 10^5 cells/ml grown 2 hours at 37° C.; 50, 5, 0.5, 0.05, 0.005 μg/ml; text prints 'this E. coli'
Method: In addition, Staphylococcus aureus (10^5 cells/ml) was treated with a capacitive biosensor and grown at 37° C. for 2 hours, and then was treated with antibiotic Gentamicin (MIC: ˜ […]) 50, 5, 0.5, 0.05, and 0.005 μg/ml, respectively. The degree of susceptibility was determined based on the results of the capacitance monitored in real time, and the minimum inhibitory concentration thereof was confirmed.

E. coli [2] = experiment: Susceptibility measurement by type of antibiotic with capacitive biosensor (E. coli-specific aptamer); assay type: cell-based; details: antibiotic 100 ng/ml, 37° C., 6 hours, FIG. 8
Method: The susceptibility inspection for antibiotics was performed, after identifying an E. coli using the capacitive biosensor manufactured by treating E. coli-specific aptamer in Experimental Example 2 on the substrate manufactured according to Manufacturing Example 2.
PBS was treated as a control, each treatment was treated with cephalothin, Gentamicin, Ciprofloxacin and chloramphenicol at a concentration of 100 ng/ml, the change in capacitance with time was measured for 6 hours in an incubator at 37° C.

E. coli [3] = details: reference value given in the method; cited from earlier work
Staphylococcus aureus [4] = details: reference value given in the method; cited from earlier work
[5] = test system: Ampicillin-resistant E. coli; experiment: Susceptibility of antibiotic-resistant bacterium by real-time capacitance; assay type: cell-based; details: Tetracycline 2 μg/ml, Gentamicin 1 μg/ml, Ampicillin 8 μg/ml; FIG. 11 (b)
Method: (§1) In addition, Tetracycline-resistant E. coli or Ampicillin-resistant E. coli (10^5 cells/ml) was treated with a capacitive biosensor and grown at 37° C. for 2 hours, and was then treated with Tetracycline at a concentration of 2 μg/ml, Gentamicin at a concentration of 1 μg/ml, and Ampicillin at a concentration of 8 μg/ml, respectively. The degree of susceptibility was determined based on the results of the capacitance monitored in real time.

[6] = test system: Tetracycline-resistant E. coli; experiment: as above; assay type: cell-based; details: Tetracycline 2 μg/ml, Gentamicin 1 μg/ml, Ampicillin 8 μg/ml; FIG. 11 (a)
Method: as §1

E. coli [7] = experiment: Minimum inhibitory concentration by real-time capacitance of capacitive biosensor; assay type: cell-based; details: E. coli 10^5 cells/ml grown 2 hours at 37° C.
Method: To determine the minimum inhibitory concentration of an antibiotic, E. coli (10^5 cells/ml) was treated with a capacitive biosensor and grown at 37° C. for 2 hours, and then treated with antibiotic ceftriaxone (MIC: ˜ 30 ng/ml) at concentrations of 100, 80, 60, 40 and 20 ng/ml, respectively. The degree of susceptibility was determined based on the results of the capacitance monitored in real time, and the minimum inhibitory concentration thereof was confirmed.
In addition, E. coli (10^5 cells/ml) was treated with a capacitive biosensor and grown at 37° C. for 2 hours, and then treated with antibiotic Gentamicin (MIC: ˜ […]) 50, 5, 0.5, 0.05, and 0.005 μg/ml, respectively. The degree of susceptibility was determined based on the results of the capacitance monitored in real time, and the minimum inhibitory concentration thereof was confirmed.

other microorganisms = experiment: Identification of a microorganism: capacitance change of aptamer-fixed biosensor; assay type: binding; details: about 2 hours, 37° C., FIG. 6
Method: (§2) An experiment was conducted to confirm whether a microorganism could be identified using the biosensor produced according to Production Example 2.
(§3) Particularly, each well was treated and fixed with an aptamer specific to E. coli, Acinetobacterbaumannii, Staphylococcus aureus or Enterococcus faecalis, and media (a control group or a control) not containing a microorganism, E. coli, Acinetobacterbaumannii, Staphylococcus aureus or Enterococcus faecalis were treated with a sensor, and then the change in capacitance was measured after about 2 hours in an incubator at 37° C.

Staphylococcus aureus [8] = experiment: as above; assay type: binding; details: about 2 hours, 37° C., FIG. 6
Method: as §2, §3

E. coli [9] = experiment: as above; assay type: binding; details: about 2 hours, 37° C., FIG. 6
Method: as §2, §3

## Gentamicin
Staphylococcus aureus [1]
  minimum inhibitory concentration: 0.5 µg/mL
E. coli [2]
  change in capacitance after the addition of antibiotics: decrease in capacitance
  susceptibility or resistance of the bacterium to the antibiotic: susceptibility
E. coli [3]
  MIC (stated with the antibiotic): 0.5 µg/mL
Staphylococcus aureus [4]
  MIC (stated with the antibiotic): 0.5 µg/mL
[5]
  change in capacitance value after antibiotic treatment: decrease in capacitance value
[6]
  change in capacitance value after antibiotic treatment: decrease in capacitance value
E. coli [7]; 50, 5, 0.5, 0.05, 0.005 μg/ml, FIG. 10
  minimum inhibitory concentration: 0.5 µg/mL

## O=C(N[C@H](CO)[C@H](O)c1ccc([N+](=O)[O-])cc1)C(Cl)Cl [chloramphenicol]
E. coli [2]
  change in capacitance after the addition of antibiotics: increase in capacitance
  susceptibility or resistance of the bacterium to the antibiotic: resistance (tolerance)

## CC(=O)OCC1=C(C(=O)O)N2C(=O)[C@@H](NC(=O)Cc3cccs3)[C@H]2SC1 [cephalothin]
E. coli [2]
  change in capacitance after the addition of antibiotics: increase in capacitance
  susceptibility or resistance of the bacterium to the antibiotic: resistance (tolerance)

## CO/N=C(\C(=O)N[C@@H]1C(=O)N2C(C(=O)O)=C(CSc3nc(=O)c(=O)[nH]n3C)CS[C@H]12)c1csc(N)n1 [ceftriaxone]
E. coli [3]
  MIC (stated with the antibiotic): ~0.03 µg/mL
E. coli [7]; Escherichia coli, 100, 80, 60, 40 and 20 ng/ml, FIG. 9
  MIC: 0.04 µg/mL (≈ 0.0721 µM)

## O=C(O)c1cn(C2CC2)c2cc(N3CCNCC3)c(F)cc2c1=O [Ciprofloxacin]
E. coli [2]
  change in capacitance after the addition of antibiotics: decrease in capacitance
  susceptibility or resistance of the bacterium to the antibiotic: susceptibility
E. coli [2]; listed as ciprofloxacin
  susceptibility or resistance of the bacterium to the antibiotic: high

B1: Staphylococcus aureus-specific aptamer: Staphylococcal aptamer, SEQ ID NO: 3, Genotech, Daejeon, Korea (nucleic acid)
chain: GCAATGGTACGGTACTTCCTCGGCACGTTCTCAGTAGCGCTCGCTGGTCATCCCACAGCTACGTCAAAAGTGCACGCTACTTTGCTAA
modifications: DNA, backbone and methylation of C not given here; deposited on substrate, further chemistry not fully specified
Other microorganisms
  change in capacitance on treatment with other microorganisms: did not occur significantly
Staphylococcus aureus [8]
  change in capacitance on treatment with Staphylococcus aureus: large capacitance change

B2: E. coli-specific aptamer: E. coli-specific aptamer, SEQ ID NO: 1, Genotech, Daejeon, Korea (nucleic acid)
chain: GCAATGGTACGGTACTTCCCCATGAGTGTTGTGAAATGTTGGGACACTAGGTGGCATAGAGCCGCAAAAGTGCACGCTACTTTGCTAA
modifications: DNA, backbone and methylation of C not given here; deposited on substrate, further chemistry not fully specified
Other microorganisms
  change in capacitance on treatment with other microorganisms: did not occur significantly
E. coli [9]
  change in capacitance on treatment with E. coli: significantly increased
